Each block holds one molecule with its values, some of them ahead of it. Activity calls are given as the source filed them. The calls are words filed in the database; no cut-off is given here.
Columns and labels:
HUVEC [1] = experiment: Cytotoxicity against Homo sapiens (human) HUVEC cells after 48 hr by LDH assay; format: cell-based
HUVEC [2] = experiment: Cytotoxicity against Homo sapiens (human) HUVEC cells after 48 hr by trypan blue assay; format: cell-based
HUVEC [3] = experiment: Antiproliferative activity against Homo sapiens (human) HUVEC cells at 3.11 to 124 uM after 3 days by cell counting analysis; format: functional, cell-based
HUVEC [4] = experiment: Antiproliferative activity against Homo sapiens (human) HUVEC cells at <10 ug/ml after 3 days by cell counting analysis; format: functional, cell-based
[5] = target: Matrix metalloproteinase-9 (Homo sapiens) (UniProt P14780); experiment: Inhibition of MMP9 (unknown origin) after 16 hr by gelatin zymographic analysis
Chain of Matrix metalloproteinase-9 (Homo sapiens) (P14780 whole entry): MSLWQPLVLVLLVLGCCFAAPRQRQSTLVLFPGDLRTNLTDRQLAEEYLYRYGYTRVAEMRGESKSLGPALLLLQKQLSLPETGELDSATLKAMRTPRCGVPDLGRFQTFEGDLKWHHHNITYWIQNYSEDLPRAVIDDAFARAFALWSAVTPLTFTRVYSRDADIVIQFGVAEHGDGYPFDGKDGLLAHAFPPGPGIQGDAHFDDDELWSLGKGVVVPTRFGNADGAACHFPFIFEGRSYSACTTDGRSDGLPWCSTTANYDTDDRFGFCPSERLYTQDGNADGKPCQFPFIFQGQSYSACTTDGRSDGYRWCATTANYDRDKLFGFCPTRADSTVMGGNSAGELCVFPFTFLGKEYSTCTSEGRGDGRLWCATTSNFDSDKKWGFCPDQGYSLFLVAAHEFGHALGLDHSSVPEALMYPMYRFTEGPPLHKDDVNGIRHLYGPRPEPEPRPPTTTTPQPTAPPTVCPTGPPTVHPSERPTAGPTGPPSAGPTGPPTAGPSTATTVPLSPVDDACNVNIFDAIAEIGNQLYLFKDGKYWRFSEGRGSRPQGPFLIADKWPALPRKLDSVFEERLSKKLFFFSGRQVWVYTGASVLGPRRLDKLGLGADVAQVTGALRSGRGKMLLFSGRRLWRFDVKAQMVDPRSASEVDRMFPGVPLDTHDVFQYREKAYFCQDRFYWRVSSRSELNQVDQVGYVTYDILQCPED

HUVEC [6] = experiment: Antiproliferative activity against Homo sapiens (human) HUVEC cells at 1 ug/ml after 3 days by cell counting analysis; format: functional, cell-based
[7] = target: Matrix metalloproteinase-9 (Homo sapiens) (UniProt P14780); experiment: Inhibition of MMP9 (unknown origin) at 24.88 uM after 16 hr by gelatin zymographic analysis
HUVEC [8] = experiment: Cytotoxicity against Homo sapiens (human) HUVEC cells up to 40 ug/ml after 48 hr by trypan blue assay; format: cell-based
HUVEC [9] = experiment: Antiproliferative activity against Homo sapiens (human) HUVEC cells after 3 days by cell counting analysis; format: functional, cell-based
HUVEC [10] = experiment: Antiangiogenic activity against Homo sapiens (human) HUVEC cells assessed as inhibition of capillary tube formation after 3 days by microscopic analysis; format: functional, cell-based
[11] = target: 72 kDa type IV collagenase (Homo sapiens) (UniProt P08253); experiment: Inhibition of MMP2 (unknown origin) at 37.32 uM after 16 hr by gelatin zymographic analysis
Chain of 72 kDa type IV collagenase (Homo sapiens) (P08253 110-660 limits assumed): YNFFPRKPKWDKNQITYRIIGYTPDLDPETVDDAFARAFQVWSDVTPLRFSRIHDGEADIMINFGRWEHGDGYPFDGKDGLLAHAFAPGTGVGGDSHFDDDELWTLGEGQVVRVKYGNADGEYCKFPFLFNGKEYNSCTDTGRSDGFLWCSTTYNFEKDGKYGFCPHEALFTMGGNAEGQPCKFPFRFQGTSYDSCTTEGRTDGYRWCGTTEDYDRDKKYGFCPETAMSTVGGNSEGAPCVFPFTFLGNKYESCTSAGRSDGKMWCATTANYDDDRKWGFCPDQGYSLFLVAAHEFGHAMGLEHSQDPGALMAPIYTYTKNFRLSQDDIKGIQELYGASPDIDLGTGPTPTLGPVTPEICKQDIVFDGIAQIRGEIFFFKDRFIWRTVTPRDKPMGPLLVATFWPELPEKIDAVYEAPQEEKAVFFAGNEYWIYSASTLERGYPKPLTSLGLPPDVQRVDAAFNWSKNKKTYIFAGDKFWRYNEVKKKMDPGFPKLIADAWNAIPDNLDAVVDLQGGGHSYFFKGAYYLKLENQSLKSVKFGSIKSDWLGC

HUVEC [12] = experiment: Antiangiogenic activity against Homo sapiens (human) HUVEC cells assessed as inhibition of capillary tube formation at 1 ug/ml after 3 days by microscopic analysis; format: functional, cell-based
HUVEC [13] = experiment: Cytotoxicity against Homo sapiens (human) HUVEC cells up to 40 ug/ml after 48 hr by LDH assay; format: cell-based

SMILES: COc1ccc2c(c1)OC/C(=C\c1ccc(Cl)cc1Cl)C2=O
Activity (HUVEC [1]): Dose-dependent effect
Activity (HUVEC [2]): Dose-dependent effect
Activity (HUVEC [3]): inactive

SMILES: COc1ccc2c(c1)OC/C(=C\c1ccc(O)cc1)C2=O
Activity (HUVEC [1]): Dose-dependent effect
Activity (HUVEC [2]): Dose-dependent effect
Activity (HUVEC [3]): inactive

SMILES: CN(C)c1ccc2c(c1)OC(N)=C(C#N)C2c1cccc(C(F)(F)F)c1 (centres undefined)
Activity (HUVEC [1]): Dose-dependent effect
Activity (HUVEC [2]): Dose-dependent effect
Activity (HUVEC [3]): inactive

SMILES: COc1ccc2c(c1)OC/C(=C\c1ccc(Cl)cc1)C2=O
Activity (HUVEC [1]): Dose-dependent effect
Activity (HUVEC [2]): Dose-dependent effect
Activity (HUVEC [3]): inactive

SMILES: COc1ccc2c(c1)OC/C(=C\c1ccc(O)c(O)c1)C2=O
Activity (HUVEC [1]): Dose-dependent effect
Activity (HUVEC [2]): Dose-dependent effect
Activity (HUVEC [3]): inactive

SMILES: CCCOc1ccc2c(c1)OC/C(=C\c1ccc(O)c(O)c1)C2=O
Activity (HUVEC [1]): Dose-dependent effect
Activity (HUVEC [2]): Dose-dependent effect
Activity (HUVEC [3]): inactive

SMILES: COc1ccc(/C=C2\COc3cc(OC)ccc3C2=O)cc1
Activity (HUVEC [1]): Dose-dependent effect
Activity (HUVEC [2]): Dose-dependent effect
Activity (HUVEC [3]): inactive

SMILES: COc1ccc2c(c1)OC/C(=C\c1cc(OC)c(O)c(OC)c1)C2=O
Activity (HUVEC [1]): Dose-dependent effect
Activity (HUVEC [2]): Dose-dependent effect
Activity (HUVEC [3]): inactive

SMILES: CN(C)c1ccc2c(c1)OC(N)=C(C#N)C2c1cccc([N+](=O)[O-])c1 (centres undefined)
Activity (HUVEC [1]): Dose-dependent effect
Activity (HUVEC [2]): Dose-dependent effect
Activity (HUVEC [3]): inactive

SMILES: COc1ccc2c(c1)OC/C(=C\c1ccc(OC)c(OC)c1)C2=O
Activity (HUVEC [1]): Dose-dependent effect
Activity (HUVEC [2]): Dose-dependent effect
Activity (HUVEC [3]): inactive

SMILES: COc1ccc2c(c1)OC/C(=C\c1ccc(C(F)(F)F)cc1)C2=O
Activity (HUVEC [1]): Dose-dependent effect
Activity (HUVEC [2]): Dose-dependent effect
Activity (HUVEC [3]): inactive

SMILES: COc1ccc2c(c1)OC/C(=C\c1ccccc1OC)C2=O
Activity (HUVEC [1]): Dose-dependent effect
Activity (HUVEC [2]): Dose-dependent effect
Activity (HUVEC [3]): inactive

SMILES: COc1ccc2c(c1)OC/C(=C\c1ccc(F)cc1)C2=O
Activity (HUVEC [1]): Dose-dependent effect
Activity (HUVEC [2]): Dose-dependent effect
Activity (HUVEC [3]): inactive

inhibition [5]: Dose-dependent effect
inhibition [7]: Active
inhibition [11]: Active
SMILES: COc1ccccc1C1C(C#N)=C(N)Oc2cc(N(C)C)ccc21 (centres undefined)
Activity (HUVEC [4]): Active
Activity (HUVEC [6]): Active
Activity (HUVEC [8]): Non-toxic
Activity (HUVEC [9]): Dose-dependent effect
inhibition (HUVEC [10]): Dose-dependent effect
inhibition (HUVEC [12]): Active
Activity (HUVEC [13]): Non-toxic

From ChEMBL document CHEMBL3046456, “Anti-angiogenic/proliferative behavior of a 4-aryl-4H-chromene on blood vessels endothelial cells: A possible evidence on dual anti-tumor activity” (Med Chem Res, 2011)
